Tested on: MIA PaCa-2
[1] = OFD1 knockdown: no (no doxycycline)
[2] = OFD1 knockdown: yes (Tet-on shOFD1, 100 ng/mL doxycycline)

SMILES | IC50 cell viability [1] [µM] | IC50 cell viability [2] [µM]
N[C@@H](CC(=O)N1CCn2c(nnc2C(F)(F)F)C1)Cc1cc(F)c(F)cc1F [S4002] | 21.9 | 21.2
Nc1nc(CC(=O)Nc2ccc(CCNC[C@H](O)c3ccccc3)cc2)cs1 [S4009] | 27 | 23.9
Nc1ccc(C(=O)O)c(O)c1 [S4073] | 8.25 | 7.73
CCC1=C[C@@H]2CN(C1)Cc1c([nH]c3ccccc13)[C@@](C(=O)OC)(c1cc3c(cc1OC)N(C)[C@H]1[C@@](O)(C(=O)OC)[C@H](OC(C)=O)[C@]4(CC)C=CCN5CC[C@]31[C@@H]54)C2 [S4269] | 3.46 | 3.12
O=C(O)CCCc1ccc(N(CCCl)CCCl)cc1 [S4288] | 21.7 | 19.3
CC[C@H](NC(=O)[C@H](C)NC)C(=O)N1C[C@@H](O)C[C@H]1Cc1c(-c2[nH]c3cc(F)ccc3c2C[C@@H]2C[C@H](O)CN2C(=O)[C@H](CC)NC(=O)[C@H](C)NC)[nH]c2cc(F)ccc12 [S7015] | 21.9 | 20.3
C=CC(=O)Nc1cc(Nc2nccc(-c3cn(C)c4ccccc34)n2)c(OC)cc1N(C)CCN(C)C [S7297] | 11.4 | 9.5
CC1(C)CCC(CN2CCN(c3ccc(C(=O)NS(=O)(=O)c4ccc(NCC5CCOCC5)c([N+](=O)[O-])c4)c(Oc4cnc5[nH]ccc5c4)c3)CC2)=C(c2ccc(Cl)cc2)C1 [S8048] | 13.1 | 12.1

From the supplement of paper PMC12325586
